Results reported in patent US20170150719A1, “FUNGICIDAL PYRAZOLES AND THEIR MIXTURES” (E I DU PONT DE NEMOURS AND COMPANY, priority 2010, published 2017).

What was measured:
[1] = Single oral dose pharmacokinetics in rats, plasma and fat by LC/MS (fat:plasma distribution); type: in vivo; conditions: single oral dose via gavage, compared to corresponding compounds wherein R^2 is other than H
Procedure: The pharmacokinetic properties of compounds of Formula 1 can be measured using a wide variety of assay protocols known in the science of pharmacology. In one illustrative method involving a single oral dose, three male and three female rats receive a single dose of a test substance via oral gavage. Approximately 0.25 mL of blood is collected via tail vein immediately prior to dosing, and then at 0.25, 0.5, 1, 2, 4, 8, 12, 24 h and every 24 h thereafter until sacrifice. At sacrifice, fat is also collected to determine the fat:plasma ratio at sacrifice. Blood is collected into tubes that contain ethylenediaminetetracetic acid (EDTA) and centrifuged at 2500×g in order to separate plasma from blood cells. The plasma is then extracted by protein precipitation using, for example, acetonitrile and a protein precipitation plate (e.g., Strata Impact Protein Precipitation Plate, part number CEO-7565 of Phenomenex, Torrance, Calif., U.S.A.) following directions provided for the plate. Alternatively, the plasma is extracted just with acetonitrile, vortexed (i.e. mixed using a vortex mixer), and centrifuged to pellet the proteins. After removal of the proteins, the plasma is analyzed for parent compound and/or metabolites by liquid chromatography-mass spectrometry (LC/MS). The fat is homogenized and extracted by an organic solvent such as acetonitrile. The extract is then analyzed for parent compound and/or metabolites by LC/MS. The plasma pharmacokinetic data is then analyzed using nonlinear modeling software (e.g., WinNonlin™ from Pharsight, Cary, N.C., U.S.A.) to determine half-life of the administered compound in plasma, the time after administration when the maximum plasma concentration is reached (Tmax), the maximum plasma concentration (Cmax) and the area under the plasma concentration curve (AUC). As analysis of fat requires rat sacrifice, fat data is obtained at single time points (i.e. the time of rat sacrifice). However, by using multiple rats sacrificed after different intervals from time of dosing, such parameters as Cmax for fat are determined.

Phytophthora infestans = test: whole plant or invertebrate; type: in vivo; conditions: tomato late blight, 100 = 100% disease control; for Test C rating (disease control): 0 = no disease control relative to the controls
Septoria tritici = test: Test F: wheat leaf blotch, preventive spray on wheat seedlings, visual disease rating; type: in vivo; conditions: 100 = 100% disease control, 0 = no disease control relative to the controls
Excerpt: (§1) A hyphen (-) indicates no test results.

[2] = test system: Puccinia recondita f. sp. tritici; test: Test H: wheat leaf rust, preventive spray on wheat seedlings, visual disease rating; conditions: 100 = 100% disease control, 0 = no disease control; for Test H rating (disease control): wheat leaf rust, sprayed the day before inoculation
Botrytis cinerea = test: Test A: tomato Botrytis, preventive spray on tomato seedlings, visual disease rating; conditions: 100 = 100% disease control, 0 = no disease control relative to the controls; for Test A rating (disease control): tomato Botrytis
Alternaria solani = test: Test B: tomato early blight, preventive spray on tomato seedlings, visual disease rating; conditions: for Test B rating (disease control): 0 = no disease control relative to the controls
[3] = test system: Blumeria graminis f. sp. tritici; test: Test I: wheat powdery mildew, preventive spray on wheat seedlings, visual disease rating; conditions: 100 = 100% disease control, 0 = no disease control relative to the controls; for Test I rating (disease control): wheat powdery mildew
Septoria nodorum = test: Test E: Septoria glume blotch, preventive spray on wheat seedlings, visual disease rating; conditions: 100 = 100% disease control; for Test E rating (disease control): Septoria glume blotch
Rhizoctonia solani = test: Test D: turf brown patch, preventive spray on creeping bent grass seedlings, disease rating; conditions: 100 = 100% disease control, 0 = no disease control relative to the controls
Procedure: General protocol for preparing test suspensions for Tests A-I: the test compounds were first dissolved in acetone in an amount equal to 3% of the final volume and then suspended at the desired concentration (in ppm) in acetone and purified water (50/50 mix by volume) containing 250 ppm of the surfactant Trem® 014 (polyhydric alcohol esters). The resulting test suspensions were then used in Tests A-I. Each test was conducted in triplicate, and the results were averaged. Spraying a 200 ppm test suspension to the point of run-off on the test plants was the equivalent of a rate of about 800 g/ha. Unless otherwise indicated, the rating values indicate a 200 ppm test suspension was used. (An asterisk “*” next to the rating value indicates a 40 ppm test suspension was used.)
The test suspension was sprayed to the point of run-off on creeping bent grass (Agrostis sp.) seedlings. The following day the seedlings were inoculated with a bran and mycelial slurry of Rhizoctonia solani (the causal agent of turf brown patch) and incubated in a saturated atmosphere at 27° C. for 48 h, and then moved to a growth chamber at 27° C. for 3 days, after which time disease ratings were made.

[4] = test system: Puccinia recondita f. sp. tritici; test: Test G: wheat leaf rust, spray after inoculation (curative) on wheat seedlings, visual disease rating; type: in vivo; conditions: 100 = 100% disease control
Excerpt: as §1

[5] = tomato early blight, 100 = 100% disease control
[6] = 0 = no disease control relative to the controls

SMILES	distribution into fat [1]	Test C rating (disease control) (Phytophthora infestans) [%]	Test F rating (disease control) (Septoria tritici) [%]	Test H rating (disease control) [2] [%]	Test A rating (disease control) (Botrytis cinerea) [%]	Test B rating (disease control) (Alternaria solani; [5]) [%]	Test I rating (disease control) [3] [%]	Test E rating (disease control) (Septoria nodorum; [6]) [%]	Test D rating (disease control) (Rhizoctonia solani) [%]	melting point [°C]	other results
Cc1nn(C)c(Nc2c(F)cccc2Br)c1-c1ccc(F)cc1Cl [Compound 241, N-(2-bromo-6-fluorophenyl)-4-(2-chloro-4-fluorophenyl)-1,3-dimethyl-1H-pyrazol-5-amine]	significantly diminished distribution into fat	–	–	–	–	–	–	–	–	–	–
Cc1nn(C)c(Nc2c(F)cccc2Cl)c1-c1ccc(F)cc1Br [Compound 240, 4-(2-Bromo-4-fluorophenyl)-N-(2-chloro-6-fluorophenyl)-1,3-dimethyl-1H-pyrazol-5-amine]	significantly diminished distribution into fat	–	–	–	–	–	–	–	–	–	–
Cc1nn(C)c(Nc2ccccc2F)c1-c1ccc(F)cc1Cl [compound 1]	–	0	100	99	99	93	100	0	99	–	–
Cc1nn(C)c(Nc2c(F)cccc2Cl)c1-c1ccc(F)cc1Cl [Compound 239, 4-(2-chloro-4-fluorophenyl)-N-(2-chloro-6-fluorophenyl)-1,3-dimethyl-1H-pyrazol-5-amine]	significantly diminished distribution into fat	–	–	–	–	–	–	–	–	166 to 168	Test C rating (% disease control) (Phytophthora infestans; preventive spray, rating without asterisk): 0%; Test G rating (% disease control) ([4]; spray after inoculation, rating without asterisk): 100%; Test B rating (% disease control) (Alternaria solani; tomato early blight, preventive spray, 100 = 100% disease control, rating without asterisk): 100%; Test E rating (% disease control) (Septoria nodorum; Septoria glume blotch on wheat, preventive spray, rating without asterisk): 99%
Cc1nn(C)c(Nc2ccc(F)cc2F)c1-c1ccc(F)cc1Cl [compound 2]	–	0	100	100	99	100	99	64	98	–	–
Cc1nn(C)c(Nc2ccc(Cl)cc2F)c1-c1c(F)cc(C#N)cc1F [Compound 40, 4-[5-[(4-chloro-2-fluorophenyl)amino]-1,3-dimethyl-1H-pyrazol-4-yl]-3,5-difluorobenzonitrile]	–	–	–	–	–	–	–	–	–	93 to 95	pest or weed control at 200 µg/mL (Septoria tritici; Zymoseptoria tritici): 100%; pest or weed control at 200 µg/mL ([4]; sprayed after inoculation, 0 = no disease control): 63%; pest or weed control at 200 µg/mL ([2]; read-out: Test H rating (disease control), wheat leaf rust, sprayed the day before inoculation): 100%; pest or weed control at 200 µg/mL (Botrytis cinerea; Botrytis cinerea, in Solanum lycopersicum, read-out: Test A rating (disease control), tomato Botrytis): 99%; pest or weed control at 200 µg/mL (Alternaria solani; Alternaria solani, in Solanum lycopersicum, read-out: Test B rating (disease control)): 99%; pest or weed control at 200 µg/mL ([3]; Blumeria graminis, in Triticum aestivum, read-out: Test I rating (disease control), wheat powdery mildew): 100%; pest or weed control at 200 µg/mL (Septoria nodorum; Parastagonospora nodorum, in Triticum aestivum, read-out: Test E rating (disease control), Septoria glume blotch, 0 = no disease control relative to the controls): 100%
